Measurements taken from patent US8372813B2, “Antibacterial aminoglycoside analogs” (Achaogen, Inc., priority 2008, dated 2013).

Experiments:
[1] = test system: E. coli ATCC 25922 (AECO001); experiment: MIC assay, CLSI broth microdilution; format: cell-based; settings: Escherichia coli; ATCC25922; Mueller Hinton Broth, 35C, 20 hours
Procedure: (§1) Minimum inhibitory concentrations (MIC) were determined by reference Clinical and Laboratory Standards Institute (CLSI) broth microdilution methods per M7-A7 [2006]. Quality control ranges utilizing E. coli ATCC 25922, P. aeruginosa ATCC 27853 and S. aureus ATCC 29213, and interpretive criteria for comparator agents were as published in CLSI M100-S17 [2007]. Briefly, serial two-fold dilutions of the test compounds were prepared at 2× concentration in Mueller Hinton Broth. The compound dilutions were mixed in 96-well assay plates in a 1:1 ratio with bacterial inoculum. The inoculum was prepared by suspension of a colony from an agar plate that was prepared the previous day. Bacteria were suspended in sterile saline and added to each assay plate to obtain a final concentration of 5×10^5 CFU/mL. The plates were incubated at 35C for 20 hours in ambient air.

[2] = test system: P. aeruginosa ATCC 27853 (APAE001); experiment: MIC assay, CLSI broth microdilution; format: cell-based; settings: Pseudomonas aeruginosa; ATCC27853; Mueller Hinton Broth, 35C, 20 hours
Procedure: as §1

MIC [1]: ≤ 1 µg/mL | MIC [2]: ≤ 1 µg/mL
SMILES: NCC[C@H](O)C(=O)N[C@@H]1C[C@H](N)[C@@H](O[C@H]2O[C@H](CNCCO)CC[C@H]2N)[C@H](O[C@@H]2O[C@H](CO)[C@@H](O[C@H]3O[C@@H](CN)[C@@H](O)[C@H](O)[C@H]3N)[C@H]2O)[C@H]1O [1/20]
